Like-named read-outs stand apart in the source and are kept apart here.
Test system: NLRP3
Experiment: IL-1β secretion assay in PMA-differentiated, LPS/nigericin-stimulated THP-1 cells (384-well, ELISA read-out)
Assay type: cell-based, human
Conditions: Homo sapiens
Outline: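 Secreted IL-1β quantified by capture ELISA from supernatants of PMA-differentiated THP-1 cells (30K per well). Sequence: LPS 25 ng/mL priming 2 h, compound 1 h, nigericin 2 h; dose-responses normalized between high (LPS plus 5 μM nigericin) and low (LPS alone) controls.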

[1] = THP-1, IL-1β secretion, PMA-differentiated THP-1 cells, LPS then nigericin stimulation, ELISA read at 450 nm, read-out: Activity
[2] = THP-1, Table 4, IL-1β secretion, LPS/nigericin-stimulated THP-1 cells, read-out: IC50

SMILES: O=C(CN1CC2(CC2)c2cc(Br)ccc2C1=O)NC1CCc2cn[nH]c2C1 (stereo not shown) [Example 45, 2-(6-bromo-1-oxospiro[3H-isoquinoline-4,1′-cyclopropane]-2-yl)-N-(4,5,6,7-tetrahydro-1H-indazol-6-yl)acetamide]
- IC50 [1]: < 10 µM
- IC50 [2]: 6.25 µM

SMILES: CC1(C)CN(CC(=O)N[C@H]2C[C@@](C)(O)C2)C(=O)c2ccc(Br)cc21 [Example 46, 2-(6-bromo-4,4-dimethyl-1-oxo-3H-isoquinolin-2-yl)-N-(cis-3-hydroxy-3-methyl-cyclobutyl)acetamide]
- IC50 [1]: < 10 µM
- IC50 [2]: 1.54 µM

SMILES: CC(C)(O)CCNC(=O)CN1CC2(CC2)c2cc(Br)ccc2C1=O [Example 47, 2-(6-bromo-1-oxospiro[3H-isoquinoline-4,1′-cyclopropane]-2-yl)-N-(3-hydroxy-3-methylbutyl)acetamide]
- IC50 [1]: < 10 µM
- IC50 [2]: 4.7 µM

SMILES: O=C(CN1CC2(CC2)c2cc(Br)ccc2C1=O)Nc1ncc(-n2cccn2)cn1 [Example 48, 2-(6-bromo-1-oxospiro[3H-isoquinoline-4,1′-cyclopropane]-2-yl)-N-(5-pyrazol-1-ylpyrimidin-2-yl)acetamide]
- IC50 [1]: < 10 µM
- IC50 [2]: 0.238 µM

SMILES: CC(C)(O)C12CC(NC(=O)CN3CC4(CC4)c4cc(Br)ccc4C3=O)(C1)C2 [Example 49, 2-(6-bromo-1-oxo-spiro[3H-isoquinoline-4,1′-cyclopropane]-2-yl)-N-[3-(1-hydroxy-1-methyl-ethyl)-1-bicyclo[1.1.1]pentanyl]acetamide]
- IC50 [1]: < 10 µM
- IC50 [2]: 3.01 µM

SMILES: CC(C)(O)C1CC(NC(=O)CN2CC3(CC3)c3cc(Br)ccc3C2=O)C1 (stereo not shown) [Example 50, 2-(6-bromo-1-oxospiro[3H-isoquinoline-4,1′-cyclopropane]-2-yl)-N-[3-(2-hydroxypropan-2-yl)cyclobutyl]acetamide]
- IC50 [1]: < 10 µM
- IC50 [2]: 6.44 µM

SMILES: O=C(CN1CC2(CC2)c2cc(Br)ccc2C1=O)NC12CCC(CC1)OC2 [Example 51, 2-(6-bromo-1-oxo-spiro[3H-isoquinoline-4,1′-cyclopropane]-2-yl)-N-(2-oxabicyclo[2.2.2]octan-4-yl)acetamide]
- IC50 [1]: 10 to 15 µM
- IC50 [2]: 9.07 µM

SMILES: CC1CC(NC(=O)CN2CC3(CC3)c3cc(Br)ccc3C2=O)C1 (stereo not shown) [Example 52, 2-(6-bromo-1-oxo-spiro[3H-isoquinoline-4,1′-cyclopropane]-2-yl)-N-(3-methylcyclobutyl)acetamide]
- IC50 [1]: < 10 µM
- IC50 [2]: 2.08 µM

SMILES: CC12CC(NC(=O)CN3CC4(CC4)c4cc(Br)ccc4C3=O)(CO1)C2 [Example 53, 2-(6-bromo-1-oxo-spiro[3H-isoquinoline-4,1′-cyclopropane]-2-yl)-N-(1-methyl-2-oxabicyclo[2.1.1]hexan-4-yl)acetamide]
- IC50 [1]: < 10 µM
- IC50 [2]: 7.83 µM

SMILES: O=C(CN1CC2(CC2)c2cc(Br)ccc2C1=O)N[C@H]1C[C@H](C(F)(F)F)C1 [Example 54, 2-(6-bromo-1-oxo-spiro[3H-isoquinoline-4,1′-cyclopropane]-2-yl)-N-[trans-3-(trifluoromethyl)cyclobutyl]acetamide]
- IC50 [1]: < 10 µM
- IC50 [2]: 1.55 µM

SMILES: O=C(CN1CC2(CC2)c2cc(Br)ccc2C1=O)NC1CC(O)(C(F)(F)F)C1 (stereo not drawn) [Example 55, 2-(6-bromo-1-oxo-spiro[3H-isoquinoline-4,1′-cyclopropane]-2-yl)-N-[cis-3-hydroxy-3-(trifluoromethyl)cyclobutyl]acetamide]
- IC50 [1]: < 10 µM
- IC50 [2]: 0.861 µM

SMILES: O=C(CN1CC2(CC2)c2cc(Br)ccc2C1=O)NC12CCC(CC1)CC2 [Example 56, N-(1-bicyclo[2.2.2]octanyl)-2-(6-bromo-1-oxo-spiro[3H-isoquinoline-4,1′-cyclopropane]-2-yl)acetamide]
- IC50 [1]: < 10 µM
- IC50 [2]: 7.92 µM

SMILES: O=C(CN1CC2(CC2)c2cc(Br)ccc2C1=O)NC12CCC(O)(CC1)CC2 [Example 57, 2-(6-bromo-1-oxo-spiro[3H-isoquinoline-4,1′-cyclopropane]-2-yl)-N-(4-hydroxy-1-bicyclo[2.2.2]octanyl)acetamide]
- IC50 [1]: < 10 µM
- IC50 [2]: 5.92 µM

SMILES: O=C(CN1CC2(CC2)c2cc(Br)ccc2C1=O)NC1CCCC(O)C1 (stereo not shown) [Example 58, 2-(6-bromo-1-oxo-spiro[3H-isoquinoline-4,1′-cyclopropane]-2-yl)-N-(3-hydroxycyclohexyl)acetamide]
- IC50 [1]: < 10 µM
- IC50 [2]: 3.09 µM

SMILES: CN1CC(NC(=O)CN2CC3(CC3)c3cc(Br)ccc3C2=O)CC1=O (stereo not shown) [Example 59, 2-(6-bromo-1-oxo-spiro[3H-isoquinoline-4,1′-cyclopropane]-2-yl)-N-(1-methyl-5-oxo-pyrrolidin-3-yl)acetamide]
- IC50 [1]: > 15 µM
- IC50 [2]: 18.3 µM

SMILES: O=C(CN1CC2(CC2)c2cc(Br)ccc2C1=O)NC1CC(OC(F)F)C1 (stereo not shown) [Example 60, 2-(6-bromo-1-oxo-spiro[3H-isoquinoline-4,1′-cyclopropane]-2-yl)-N-[3-(difluoromethoxy)cyclobutyl]acetamide]
- IC50 [1]: < 10 µM
- IC50 [2]: 8.68 µM

SMILES: O=C(CN1CC2(CC2)c2cc(Br)ccc2C1=O)NC1CC2(COC2)C1 [Example 61, 2-(6-bromo-1-oxo-spiro[3H-isoquinoline-4,1′-cyclopropane]-2-yl)-N-(2-oxaspiro[3.3]heptan-6-yl)acetamide]
- IC50 [1]: < 10 µM
- IC50 [2]: 2.75 µM

SMILES: CCN1CC(NC(=O)CN2CC3(CC3)c3cc(Br)ccc3C2=O)CCC1=O (stereo not shown) [Example 62, 2-(6-bromo-1-oxo-spiro[3H-isoquinoline-4,1′-cyclopropane]-2-yl)-N-(1-ethyl-6-oxo-3-piperidyl)acetamide]
- IC50 [1]: 10 to 15 µM
- IC50 [2]: 12.1 µM

SMILES: CC(C)(O)CNC(=O)CN1CC2(CC2)c2cc(Br)ccc2C1=O [Example 63, 2-(6-bromo-1-oxo-spiro[3H-isoquinoline-4,1′-cyclopropane]-2-yl)-N-(2-hydroxy-2-methyl-propyl)acetamide]
- IC50 [1]: > 15 µM
- IC50 [2]: 16.5 µM

SMILES: O=C(CN1CC2(CC2)c2cc(Br)ccc2C1=O)N[C@H]1C[C@@H](CO)C1 [Example 64, 2-(6-bromo-1-oxo-spiro[3H-isoquinoline-4,1′-cyclopropane]-2-yl)-N-[cis-3-(hydroxymethyl)cyclobutyl]acetamide]
- IC50 [1]: < 10 µM
- IC50 [2]: 6.4 µM

SMILES: N#CC1CC(NC(=O)CN2CC3(CC3)c3cc(Br)ccc3C2=O)C1 (stereo not shown) [Example 65, 2-(6-bromo-1-oxo-spiro[3H-isoquinoline-4,1′-cyclopropane]-2-yl)-N-(3-cyanocyclobutyl)acetamide]
- IC50 [1]: < 10 µM
- IC50 [2]: 6.86 µM

SMILES: CC(C)(O)C1CCN(C(=O)CN2CC3(CC3)c3cc(Br)ccc3C2=O)C1 (stereo not shown) [Example 66, 6-bromo-2-[2-[3-(1-hydroxy-1-methyl-ethyl)pyrrolidin-1-yl]-2-oxo-ethyl]spiro[3H-isoquinoline-4,1′-cyclopropane]-1-one]
- IC50 [1]: > 15 µM
- IC50 [2]: 26.2 µM

SMILES: O=C(CN1CC2(CC2)c2cc(Br)ccc2C1=O)NC1CC(F)(F)C1 [Example 67, 2-(6-bromo-1-oxo-spiro[3H-isoquinoline-4,1′-cyclopropane]-2-yl)-N-(3,3-difluorocyclobutyl)acetamide]
- IC50 [1]: < 10 µM
- IC50 [2]: 8.75 µM

SMILES: CC1(O)CCN(C(=O)CN2CC3(CC3)c3cc(Br)ccc3C2=O)C1 (stereo not shown) [Example 68, 6-bromo-2-[2-(3-hydroxy-3-methyl-pyrrolidin-1-yl)-2-oxo-ethyl]spiro[3H-isoquinoline-4,1′-cyclopropane]-1-one]
- IC50 [1]: > 15 µM
- IC50 [2]: 28.6 µM

SMILES: CC1CN(CC(=O)NC2CC(C)(O)C2)C(=O)c2ccc(Br)cc21 (stereo not drawn) [Example 69, 2-(6-bromo-4-methyl-1-oxo-3,4-dihydroisoquinolin-2-yl)-N-(cis-3-hydroxy-3-methyl-cyclobutyl)acetamide]
- IC50 [1]: < 10 µM
- IC50 [2]: 0.643 µM

SMILES: O=C(CN1CC2(CC2)c2cc(Br)ccc2C1=O)N[C@@H]1CCCN(C2CCC2)C1 [Example 70, 2-(6-bromo-1-oxo-spiro[3H-isoquinoline-4,1′-cyclopropane]-2-yl)-N-[(3R)-1-cyclobutyl-3-piperidyl]acetamide]
- IC50 [1]: < 10 µM
- IC50 [2]: 0.191 µM

SMILES: COC(=O)N1CCC[C@@H](NC(=O)CN2CC3(CC3)c3cc(Br)ccc3C2=O)C1 [Example 71, methyl (3R)-3-[[2-(6-bromo-1-oxo-spiro[3H-isoquinoline-4,1′-cyclopropane]-2-yl)acetyl]amino]piperidine-1-carboxylate]
- IC50 [1]: < 10 µM
- IC50 [2]: 6.96 µM

SMILES: N#Cc1ccc(NC(=O)CN2CC3(CC3)c3cc(Br)ccc3C2=O)nc1 [Example 72, 2-(6-bromo-1-oxospiro[3H-isoquinoline-4,1′-cyclopropane]-2-yl)-N-(5-cyanopyridin-2-yl)acetamide]
- IC50 [1]: < 10 µM
- IC50 [2]: 0.511 µM

SMILES: Cn1cc(NC(=O)CN2CC3(CC3)c3cc(Br)ccc3C2=O)ccc1=O [Example 73, 2-(6-bromo-1-oxo-spiro[3H-isoquinoline-4,1′-cyclopropane]-2-yl)-N-(1-methyl-6-oxo-3-pyridyl)acetamide]
- IC50 [1]: 10 to 15 µM
- IC50 [2]: 11.5 µM

SMILES: CC1CN(CC(=O)Nc2ncccn2)C(=O)c2ccc(Br)cc21 (stereo not shown) [Example 74, 2-(6-bromo-4-methyl-1-oxo-3,4-dihydroisoquinolin-2-yl)-N-pyrimidin-2-yl-acetamide]
- IC50 [1]: < 10 µM
- IC50 [2]: 1.76 µM

SMILES: O=C(CN1CC2(CCCC2)c2cc(Br)ccc2C1=O)Nc1ncccn1 [Example 75, 2-(6-bromo-1-oxo-spiro[3H-isoquinoline-4,1′-cyclopentane]-2-yl)-N-pyrimidin-2-yl-acetamide]
- IC50 [1]: 10 to 15 µM
- IC50 [2]: 12.3 µM

SMILES: CC1N(CC(=O)Nc2ncccn2)C(=O)c2ccc(C(F)(F)F)cc2C12CC2 (stereo not shown) [Example 76, 2-[3-methyl-1-oxo-6-(trifluoromethyl)spiro[3H-isoquinoline-4,1′-cyclopropane]-2-yl]-N-pyrimidin-2-ylacetamide]
- IC50 [1]: > 15 µM
- IC50 [2]: 16.2 µM
